Series [1] deals with MMP-13 (catalytic domain of collagenase 3) (Homo sapiens, UniProt P45452). Kind of series: Thiopeptolide substrate hydrolysis assay, MMP-13. Format: biochemical. The source says:
The assays used to evaluate the biological activity of the invention compounds are well known and routinely used by those skilled in the study of MMP inhibitors and their use to treat clinical conditions.
(§1) The assays measure the amount by which a test compound reduces the hydrolysis of a thiopeptolide substrate catalyzed by a matrix metalloproteinase enzyme. Such assays are described in detail by Ye et al., in Biochemistry, 1992; 31(45):11231–11235, which is incorporated herein by reference.
Thiopeptolide substrates show virtually no decomposition or hydrolysis at or below neutral pH in the absence of a matrix metalloproteinase enzyme. A typical thiopeptolide substrate commonly utilized for assays is Ac-Pro-Leu-Gly-thioester-Leu-Leu-Gly-OEt. A 100-μL assay mixture will contain 50 mM of N-2-hydroxyethylpiperazine-N′-2-ethanesulfonic acid buffer (“HEPES”) at pH 7.0, 10 mM CaCl2, 100 μM thiopeptolide substrate, and 1 mM 5,5′-dithio-bis-(2-nitro-benzoic acid) (DTNB). The thiopeptolide substrate concentration may be varied from, for example, 10 to 800 μM to obtain Km and Kcat values. The change in absorbance at 405 nm is monitored on a Thermo Max microplate reader (Molecular Devices, Menlo Park, Calif.) at room temperature (22° C.). The calculation of the amount of hydrolysis of the thiopeptolide substrate is based on E412=13600 M^−1 cm^−1 for the DTNB-derived product 3-carboxy-4-nitrothiophenoxide. Assays are carried out with and without matrix metalloproteinase inhibitor compounds, and the amount of hydrolysis is compared for a determination of inhibitory activity of the test compounds.
In the tables, MMP-1 refers to full-length interstitial collagenase; MMP-3 refers to the catalytic domain of stromelysin-1; MMP-13 refers to the catalytic domain of collagenase 3. Test compounds were evaluated at various concentrations to determine their respective IC50 values.

The target in series [2] is T1, MMP-1 (full-length interstitial collagenase) (Homo sapiens, UniProt P03956).
T1 sequence (P03956 100-469): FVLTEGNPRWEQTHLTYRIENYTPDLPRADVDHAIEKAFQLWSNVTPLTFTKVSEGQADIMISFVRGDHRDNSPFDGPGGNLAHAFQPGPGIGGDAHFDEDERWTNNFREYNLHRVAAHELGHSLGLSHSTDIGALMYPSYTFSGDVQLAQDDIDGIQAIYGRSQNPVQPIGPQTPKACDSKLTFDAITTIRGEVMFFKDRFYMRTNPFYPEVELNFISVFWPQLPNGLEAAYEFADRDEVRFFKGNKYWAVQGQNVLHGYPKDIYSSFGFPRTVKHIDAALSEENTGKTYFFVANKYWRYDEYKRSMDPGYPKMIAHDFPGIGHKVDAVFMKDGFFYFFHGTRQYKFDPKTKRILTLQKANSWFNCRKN
Kind of series: Thiopeptolide substrate hydrolysis assay, MMP-1. Conditions: pH 7.0, 22° C. The series is classed as biochemical.
Description: The invention compounds of Formula I have been evaluated in standard assays for their ability to inhibit the catalytic activity of various MMP enzymes. The assays used to evaluate the biological activity of the invention compounds are well known and routinely used by those skilled in the study of MMP inhibitors and their use to treat clinical conditions.
as §1
Thiopeptolide substrates show virtually no decomposition or hydrolysis at or below neutral pH in the absence of a matrix metalloproteinase enzyme. A typical thiopeptolide substrate commonly utilized for assays is Ac-Pro-Leu-Gly-thioester-Leu-Leu-Gly-OEt. […] The change in absorbance at 405 nm is monitored on a Thermo Max microplate reader (Molecular Devices, Menlo Park, Calif.) at room temperature (22° C.). […]
Representative compounds have been evaluated for their ability to inhibit various matrix metalloproteinase enzymes. […] Test compounds were evaluated at various concentrations to determine their respective IC50 values.

Where [3] appears, read: catalytic domain of collagenase 3, Table 1, read-out: MMP-13 IC50.
The mark [4] stands for this setting: catalytic domain, human, combinatorial compounds of Example 14, Table 2, read-out: MMP-13 IC50 CD/Human.

Read-outs that look alike come from different tables or passages of the source.

The values that follow come from patent publication US7015237B2, “Pyridine matrix metalloproteinase inhibitors” (Warner-Lambert Company, priority 2001, dated 2006).

By melting point is commonly meant the temperature of the solid-liquid transition. For the molecule `O=C(OCc1ccc2c(c1)OCO2)c1cncc(C(=O)OCc2ccc3c(c2)OCO3)c1` [Example 5, Pyridine-3,5-dicarboxylic acid bis-(1,3-benzodioxol-5-ylmethyl) ester], the melting point fell in the range of 113 to 114 °C.

For the molecule `O=C(NCc1ccc(Cl)cc1)c1cncc(C(=O)NCc2ccc(Cl)cc2)c1` [Example 2, Pyridine-3,5-dicarboxylic acid bis-(4-chloro-benzylamide)], the melting point was in the range of 224 to 225 °C.

With `COc1ccc(CNC(=O)c2cncc(C(=O)NCc3ccc(OC)cc3)c2)cc1` [Example 6, Pyridine-3,5-dicarboxylic acid bis-(4-methoxy-benzylamide)], the melting point was in the range of 224 to 225 °C. Besides, the IC50 in series [1] (setting [3]) was found to be 8.7 µM.

The molecule `O=C(NCc1cccc(Cl)c1)c1cncc(C(=O)NCc2cccc(Cl)c2)c1` [Example 3, Pyridine-3,5-dicarboxylic acid bis-(3-chloro-benzylamide)] showed a melting point of 185 to 186 °C. In addition, in series [1] (setting [3]), the IC50 turned out to be 30 µM.

The molecule `O=C(NCc1ccc2c(c1)OCO2)c1cncc(C(=O)NCc2ccc3c(c2)OCO3)c1` [Example 7, Pyridine-3,5-dicarboxylic acid bis-[(1,3-benzodioxol-5-ylmethyl)-amide]] registered a melting point of 194 to 195 °C. Moreover, the IC50 in series [1] (setting [3]) amounted to 2.3 µM. Also, in series [2], the IC50 came out at 30 µM.

With `O=C(NC(Cc1ccccc1)c1ccccc1)c1ccnc(C(=O)NC(Cc2ccccc2)c2ccccc2)c1` (stereo not shown) [Example 14.21, Pyridine-2,4-dicarboxylic acid bis-[(1,2-diphenyl-ethyl)-amide]], in series [1] (setting [4]), the IC50 is 30 µM.

On to `CCc1ccc(CCNC(=O)c2ccnc(C(=O)NCCc3ccc(CC)cc3)c2)cc1` [Example 14.19, Pyridine-2,4-dicarboxylic acid bis-{[2-(4-ethyl-phenyl)-ethyl]-amide}], for which the IC50 in series [1] (setting [4]) stood at 30 µM.

For the molecule `O=C(NCCc1ccccc1Oc1ccccc1)c1ccnc(C(=O)NCCc2ccccc2Oc2ccccc2)c1` [Example 14.12, Pyridine-2,4-dicarboxylic acid bis-{[2-(2-phenoxy-phenyl)-ethyl]-amide}], the IC50 in series [1] (setting [4]) came out at 30 µM.

In turn, `O=C(NCc1ccc(F)cc1)c1cncc(C(=O)NCc2ccc(F)cc2)c1` [Example 9, Pyridine-3,5-dicarboxylic acid bis-(4-fluoro-benzylamide)] showed a melting point of 216 to 218 °C.

As to “Pyridine-2,4-dicarboxylic acid bis-indan-1-ylamide [Example 14.73]”, in series [1] (setting [4]), the IC50 was determined as 0.44 µM.

Regarding `O=C(NCCc1ccc(O)cc1)c1ccnc(C(=O)NCCc2ccc(O)cc2)c1` [Example 14.66, Pyridine-2,4-dicarboxylic acid bis-{[2-(4-hydroxy-phenyl)-ethyl]-amide}], the IC50 in series [1] (setting [4]) is 30 µM.

With `O=C(NCc1cc(Cl)cc(Cl)c1)c1ccnc(C(=O)NCc2cc(Cl)cc(Cl)c2)c1` [Example 14.80, Pyridine-2,4-dicarboxylic acid bis-(3,5-dichloro-benzylamide)], the IC50 in series [1] (setting [4]) was 30 µM.
